Assay results from patent US11629143B2, “HipK4 inhibitors and uses thereof” (Vibliome Therapeutics, LLC, priority 2020, dated 2023).

What was measured:
Test in all cases: Kinase panel (mobility shift)
Assay type in all cases: biochemical
MER = biological target: T1, MER (Homo sapiens, UniProt Q12866)
T1 sequence (Q12866 21-999): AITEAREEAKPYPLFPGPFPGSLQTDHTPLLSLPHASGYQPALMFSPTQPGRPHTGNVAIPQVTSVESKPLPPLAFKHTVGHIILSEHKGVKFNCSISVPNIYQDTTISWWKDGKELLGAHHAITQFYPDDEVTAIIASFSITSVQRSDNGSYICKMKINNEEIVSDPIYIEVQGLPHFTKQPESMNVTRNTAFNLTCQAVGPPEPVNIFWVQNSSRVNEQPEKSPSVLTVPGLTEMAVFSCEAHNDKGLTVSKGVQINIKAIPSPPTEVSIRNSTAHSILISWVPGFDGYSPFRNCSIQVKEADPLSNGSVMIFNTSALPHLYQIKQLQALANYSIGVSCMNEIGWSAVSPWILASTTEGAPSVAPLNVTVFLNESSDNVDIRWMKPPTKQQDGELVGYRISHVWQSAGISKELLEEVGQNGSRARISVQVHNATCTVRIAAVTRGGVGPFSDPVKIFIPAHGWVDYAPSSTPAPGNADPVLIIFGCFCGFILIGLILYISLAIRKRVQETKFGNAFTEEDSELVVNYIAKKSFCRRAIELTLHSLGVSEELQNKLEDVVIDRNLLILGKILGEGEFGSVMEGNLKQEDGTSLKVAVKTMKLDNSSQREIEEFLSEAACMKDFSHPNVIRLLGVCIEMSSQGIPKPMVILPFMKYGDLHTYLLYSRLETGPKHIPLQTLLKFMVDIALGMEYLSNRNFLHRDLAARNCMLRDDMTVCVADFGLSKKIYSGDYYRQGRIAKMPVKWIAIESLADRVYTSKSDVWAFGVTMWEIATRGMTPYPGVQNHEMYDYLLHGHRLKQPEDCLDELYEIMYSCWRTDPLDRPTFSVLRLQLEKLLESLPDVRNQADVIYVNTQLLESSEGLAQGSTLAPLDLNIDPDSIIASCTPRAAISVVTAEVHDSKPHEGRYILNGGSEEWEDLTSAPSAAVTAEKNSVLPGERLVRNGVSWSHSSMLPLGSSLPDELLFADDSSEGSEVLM
Description: (§1) The disclosed compounds were tested for activity against a panel of 299 kinases. The target enzyme was incubated with fluorescently labeled substrate and test compounds in a standardized reaction mixture in 384 well plates. Upon termination of the reaction, samples were introduced onto microfluidic chips. The samples migrated through channels in the chips and product and substrate were separated based on the difference in their charge (electrophoretic mobility shift). Enzyme activity was measured by direct comparison of the fluorescence in the product and substrate peaks. […] In the tables A=95% or greater at 5 um, B=90%-94% at 5 um, and C=80%-89% at 5 um. [note to draft: we included category D for 50-79 and category E is less than 50%. Feel free to remove if not needed)

SRC = SRC (Homo sapiens, UniProt P12931)
Description: as §1

EPH-B2 = biological target: T2, EPH-B2 (Homo sapiens, UniProt P29323); conditions: at 5 um
T2 sequence (P29323 19-1055): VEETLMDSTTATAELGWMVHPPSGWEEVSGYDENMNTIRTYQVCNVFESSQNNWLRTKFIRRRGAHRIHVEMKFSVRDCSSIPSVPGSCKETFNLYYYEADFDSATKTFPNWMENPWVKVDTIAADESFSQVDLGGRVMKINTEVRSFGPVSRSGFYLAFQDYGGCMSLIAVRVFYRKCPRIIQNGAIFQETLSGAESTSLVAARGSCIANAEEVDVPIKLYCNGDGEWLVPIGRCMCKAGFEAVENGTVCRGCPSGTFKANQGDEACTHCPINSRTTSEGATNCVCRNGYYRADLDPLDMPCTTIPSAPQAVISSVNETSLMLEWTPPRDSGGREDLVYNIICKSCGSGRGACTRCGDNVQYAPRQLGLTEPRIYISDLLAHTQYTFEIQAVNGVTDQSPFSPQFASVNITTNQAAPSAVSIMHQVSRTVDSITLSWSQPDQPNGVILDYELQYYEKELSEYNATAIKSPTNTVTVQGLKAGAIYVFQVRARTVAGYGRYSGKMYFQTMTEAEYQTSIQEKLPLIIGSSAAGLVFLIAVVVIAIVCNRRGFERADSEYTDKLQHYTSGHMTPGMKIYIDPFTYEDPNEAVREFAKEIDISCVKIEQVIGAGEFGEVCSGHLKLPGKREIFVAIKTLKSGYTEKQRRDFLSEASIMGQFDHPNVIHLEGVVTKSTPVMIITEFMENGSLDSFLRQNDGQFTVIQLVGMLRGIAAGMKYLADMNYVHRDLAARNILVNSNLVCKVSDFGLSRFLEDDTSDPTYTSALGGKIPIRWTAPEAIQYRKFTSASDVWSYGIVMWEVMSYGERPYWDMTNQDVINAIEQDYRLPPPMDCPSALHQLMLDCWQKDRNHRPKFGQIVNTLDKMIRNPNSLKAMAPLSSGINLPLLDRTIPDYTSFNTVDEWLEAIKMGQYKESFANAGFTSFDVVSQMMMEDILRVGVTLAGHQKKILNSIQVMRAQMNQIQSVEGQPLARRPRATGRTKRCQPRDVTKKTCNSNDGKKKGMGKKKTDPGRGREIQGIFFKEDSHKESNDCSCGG
Description: as §1

RIPK2 = RIPK2 (Homo sapiens, UniProt O43353)
Description: as §1

EPH-A5 = EPH-A5 (Homo sapiens, UniProt P54756); conditions: at 5 um
Description: as §1

Sequence of RIPK2 (O43353 whole entry, species assumed): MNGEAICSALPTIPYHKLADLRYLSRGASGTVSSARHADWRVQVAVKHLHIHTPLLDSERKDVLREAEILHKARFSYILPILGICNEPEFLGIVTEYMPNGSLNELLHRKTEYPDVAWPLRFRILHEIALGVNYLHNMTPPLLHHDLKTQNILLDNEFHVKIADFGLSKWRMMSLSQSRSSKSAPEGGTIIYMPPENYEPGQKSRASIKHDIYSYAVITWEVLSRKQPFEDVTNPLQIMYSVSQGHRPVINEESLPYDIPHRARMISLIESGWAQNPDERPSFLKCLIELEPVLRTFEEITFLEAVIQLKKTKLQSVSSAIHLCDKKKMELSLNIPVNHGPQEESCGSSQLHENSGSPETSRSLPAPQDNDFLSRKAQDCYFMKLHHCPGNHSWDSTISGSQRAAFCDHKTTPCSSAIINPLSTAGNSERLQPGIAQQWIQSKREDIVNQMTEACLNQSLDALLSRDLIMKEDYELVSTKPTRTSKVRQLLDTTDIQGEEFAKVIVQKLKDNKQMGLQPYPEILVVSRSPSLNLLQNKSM
Sequence of SRC (P12931 whole entry, species assumed): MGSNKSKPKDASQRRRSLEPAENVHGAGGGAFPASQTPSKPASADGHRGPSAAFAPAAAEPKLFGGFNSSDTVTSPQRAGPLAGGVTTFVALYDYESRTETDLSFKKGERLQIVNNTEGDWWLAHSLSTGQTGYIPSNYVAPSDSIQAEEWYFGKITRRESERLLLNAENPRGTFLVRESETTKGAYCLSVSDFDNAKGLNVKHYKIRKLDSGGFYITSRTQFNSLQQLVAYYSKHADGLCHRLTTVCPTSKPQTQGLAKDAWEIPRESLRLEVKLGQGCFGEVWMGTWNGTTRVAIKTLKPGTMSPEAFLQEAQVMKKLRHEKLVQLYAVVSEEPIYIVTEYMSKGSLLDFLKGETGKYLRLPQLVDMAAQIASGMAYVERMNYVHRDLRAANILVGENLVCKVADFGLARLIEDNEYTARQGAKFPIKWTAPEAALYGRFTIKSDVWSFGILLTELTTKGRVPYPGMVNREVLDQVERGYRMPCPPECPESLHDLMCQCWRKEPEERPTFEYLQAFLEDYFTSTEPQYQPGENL
Sequence of EPH-A5 (P54756 25-1037, species assumed): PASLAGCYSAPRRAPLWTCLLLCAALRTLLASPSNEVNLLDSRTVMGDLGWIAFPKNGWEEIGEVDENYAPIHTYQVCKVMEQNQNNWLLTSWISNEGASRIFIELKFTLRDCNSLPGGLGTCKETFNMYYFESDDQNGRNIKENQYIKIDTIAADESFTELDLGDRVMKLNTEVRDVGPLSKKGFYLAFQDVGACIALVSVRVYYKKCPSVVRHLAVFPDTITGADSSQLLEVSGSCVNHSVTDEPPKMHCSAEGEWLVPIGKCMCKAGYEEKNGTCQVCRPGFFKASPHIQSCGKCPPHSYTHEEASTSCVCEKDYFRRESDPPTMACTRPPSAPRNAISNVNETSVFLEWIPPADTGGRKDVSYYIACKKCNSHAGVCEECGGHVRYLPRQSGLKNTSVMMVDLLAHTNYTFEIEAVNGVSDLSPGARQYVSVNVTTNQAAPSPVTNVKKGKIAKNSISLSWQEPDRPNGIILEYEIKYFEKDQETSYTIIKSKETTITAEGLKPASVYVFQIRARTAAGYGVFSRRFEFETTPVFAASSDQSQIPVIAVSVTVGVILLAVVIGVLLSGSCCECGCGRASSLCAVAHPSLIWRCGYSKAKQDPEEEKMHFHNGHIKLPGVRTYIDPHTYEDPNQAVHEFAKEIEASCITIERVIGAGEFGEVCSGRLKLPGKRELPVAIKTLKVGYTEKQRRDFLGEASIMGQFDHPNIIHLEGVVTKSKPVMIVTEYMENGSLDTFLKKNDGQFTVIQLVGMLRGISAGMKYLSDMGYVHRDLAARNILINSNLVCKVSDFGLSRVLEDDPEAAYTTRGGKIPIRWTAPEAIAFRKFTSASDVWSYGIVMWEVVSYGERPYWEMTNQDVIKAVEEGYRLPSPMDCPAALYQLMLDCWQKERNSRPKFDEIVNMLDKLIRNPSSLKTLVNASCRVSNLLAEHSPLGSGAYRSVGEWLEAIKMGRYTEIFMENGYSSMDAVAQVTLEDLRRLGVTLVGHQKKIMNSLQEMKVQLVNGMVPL

| Structure (SMILES) | inhibition at 5 µM (MER) [%] | inhibition at 5 µM (SRC) [%] | inhibition of kinase activity, EPH-B2 (EPH-B2) | inhibition at 5 µM (RIPK2) [%] | inhibition of kinase activity, EPH-A5 (EPH-A5) |
| --- | --- | --- | --- | --- | --- |
| CSc1nc(C(=O)Nc2ccc(Oc3ccnc(N)c3Cl)c(F)c2)c(-c2ccc(F)cc2)o1 [Compound 1] | < 50 | < 50 | E (category E is less than 50%) | < 50 | E (category E is less than 50%) |
| CSc1nc(C(=O)Nc2ccc(Oc3cc4cnn(C)c4cc3Br)c(F)c2)c(-c2ccc(F)cc2)o1 [Compound 2] | < 50 | < 50 | E (category E is less than 50%) | < 50 | D (category D for 50-79) |
| CNC(=O)c1cc(Oc2ccc(NC(=O)c3nc(SC)oc3-c3ccc(F)cc3Cl)cc2)ccn1 [Compound 3] | 90 to 94 | 80 to 89 | E (category E is less than 50%) | 90 to 94 | E (category E is less than 50%) |
| CNC(=O)c1cc(Oc2ccc(NC(=O)c3nc(SC)oc3-c3ccc(F)c(F)c3)cc2)ccn1 [Compound 4] | 50 to 79 | < 50 | E (category E is less than 50%) | 80 to 89 | E (category E is less than 50%) |
| CNC(=O)c1cc(Oc2ccc(NC(=O)c3nc(SC)oc3-c3ccc(Cl)s3)cc2)ccn1 [Compound 5] | < 50 | < 50 | E (category E is less than 50%) | 50 to 79 | E (category E is less than 50%) |
| CNC(=O)c1cc(Oc2ccc(NC(=O)c3nc(SC)oc3-c3ccc(F)cc3F)cc2)ccn1 [Compound 6] | 90 to 94 | 80 to 89 | E (category E is less than 50%) | ≥ 95 | E (category E is less than 50%) |
| CNC(=O)c1cc(Oc2ccc(NC(=O)c3nc(SC)oc3-c3ccc(OC)cc3)cc2)ccn1 [Compound 7] | < 50 | < 50 | E (category E is less than 50%) | < 50 | E (category E is less than 50%) |
| CSc1nc(C(=O)Nc2ccc(Oc3ccnc(-c4cnn(C)c4)c3)c(F)c2)c(-c2ccc(F)cc2)o1 [Compound 11] | 90 to 94 | 50 to 79 | B (B=90%-94% at 5 um) | 50 to 79 | C (C=80%-89% at 5 um) |

Now from value to molecule:

| inhibition at 5 µM (MER) [%] | inhibition at 5 µM (SRC) [%] | inhibition of kinase activity, EPH-B2 (EPH-B2) | inhibition at 5 µM (RIPK2) [%] | inhibition of kinase activity, EPH-A5 (EPH-A5) | Structure (SMILES) |
| --- | --- | --- | --- | --- | --- |
| 80 to 89 | 50 to 79 | D (category D for 50-79) | 90 to 94 | D (category D for 50-79) | CNC(=O)c1cc(Oc2ccc(NC(=O)c3nc(SC)oc3-c3ccc(F)cc3F)cc2F)ccn1 [Compound 12] |
| 80 to 89 | < 50 | E (category E is less than 50%) | 80 to 89 | D (category D for 50-79) | CNC(=O)c1cc(Oc2ccc(NC(=O)c3nc(S(C)(=O)=O)sc3-c3ccc(F)cc3)cc2F)ccn1 [Compound 13] |
| 50 to 79 | < 50 | D (category D for 50-79) | 90 to 94 | D (category D for 50-79) | CNC(=O)c1cc(Oc2ccc(NC(=O)c3nc(NC)oc3-c3ccc(F)cc3)cc2F)ccn1 [Compound 14] |
| 50 to 79 | < 50 | D (category D for 50-79) | 80 to 89 | D (category D for 50-79) | CNC(=O)c1cc(Oc2ccc(NC(=O)c3nc(OC)oc3-c3ccc(F)cc3)cc2F)ccn1 [Compound 15] |
| < 50 | < 50 | D (category D for 50-79) | < 50 | E (category E is less than 50%) | CNC(=O)c1cc(Oc2ccc(NC(=O)c3nc(SC)oc3-c3ccc(F)s3)cc2F)ccn1 [Compound 16] |
| < 50 | < 50 | E (category E is less than 50%) | < 50 | E (category E is less than 50%) | CNC(=O)c1cc(Oc2ccc(NC(=O)c3nc(NC)oc3-c3ccc(F)s3)cc2F)ccn1 [Compound 17] |
| 50 to 79 | < 50 | D (category D for 50-79) | 50 to 79 | D (category D for 50-79) | CNC(=O)c1cc(Oc2c(F)cc(NC(=O)c3nc(NC)sc3-c3ccc(F)cc3)cc2F)ccn1 [Compound 19] |
| < 50 | < 50 | D (category D for 50-79) | 50 to 79 | D (category D for 50-79) | CNC(=O)c1cc(Oc2ccc(NC(=O)c3nc(NC)sc3-c3ccc(F)cc3F)cc2F)ccn1 [Compound 21] |
| 50 to 79 | < 50 | D (category D for 50-79) | 80 to 89 | D (category D for 50-79) | CNC(=O)c1cc(Oc2ccc(NC(=O)c3nc(NC)sc3-c3ccc(F)cc3C)cc2F)ccn1 [Compound 23] |
| < 50 | < 50 | E (category E is less than 50%) | 50 to 79 | E (category E is less than 50%) | CNC(=O)c1cc(Oc2ccc(NC(=O)c3nc(OC)oc3-c3ccc(F)c(F)c3)cc2F)ccn1 [Compound 24] |
| < 50 | < 50 | E (category E is less than 50%) | < 50 | E (category E is less than 50%) | CNC(=O)c1cc(Oc2ccc(NC(=O)c3nc(OC)oc3-c3ccc(F)s3)cc2F)ccn1 [Compound 25] |
